# Laboratory results from US20080021217A1, “HETEROCYCLIC INHIBITORS OF RHO KINASE” (priority 2006, published 2008).
# Where a name gives a salt, the structure may show the parent alone.
# Experiments:
# [1] = test system: lasered (hypertensive) eyes of conscious cynomolgus monkeys; test: Acute IOP response in lasered (hypertensive) eyes of conscious cynomolgus monkeys; assay type: in vivo; details: instilled in right eyes, IOP at 1, 3 and 6 hours; for Peak % Reduction in IOP vs. Control at 0.3%: compound at 0.3%; for Peak % Reduction in IOP vs. Control at 1.0%: compound at 1.0%
# Source text: Acute IOP Response in Lasered (Hypertensive) Eyes of Conscious Cynomolgus Monkeys
# Intraocular pressure (IOP) can be determined with an Alcon Pneumatonometer after light corneal anesthesia with 0.1% proparacaine. Eyes are washed with saline after each measurement. After a baseline IOP measurement, test compound is instilled in one […] aliquot to the right eyes only of nine cynomolgus monkeys. Vehicle is instilled in the right eyes of six additional animals. Subsequent IOP measurements are taken at 1, 3, and 6 hours, and peak reduction in IOP is reported below in Table 2 as percent of IOP lowering versus the control for each of the given concentrations of compound.
# A more detailed description of the assay used herein may be found in May et al., “Evaluation of the Ocular Hypotensive Response of Serotonin 5-HT1A and 5-HT2 Receptor Ligands in Conscious Ocular Hypertensive Cynomolgus Monkeys,” J. of Pharmacology and Experimental Therapeutics, vol. 306(1), pp. 301-309 (2003), the disclosure of which is hereby incorporated by reference as if written herein in its entirety.
# [2] = target: T1, recombinant N-terminal GST-tagged human Rho kinase 1 (ROCK1, amino acids 1-535) (Homo sapiens, UniProt Q13464); test: In vitro Rho kinase assay (luciferase-based ATP consumption), ROCK1; assay type: biochemical
# T1 construct: ROCK1, amino acids 1-535, Invitrogen Inc., cat. #PV-3691; GST (N); purchased Invitrogen Inc. PV-3691
# T1 sequence (Q13464 1-535): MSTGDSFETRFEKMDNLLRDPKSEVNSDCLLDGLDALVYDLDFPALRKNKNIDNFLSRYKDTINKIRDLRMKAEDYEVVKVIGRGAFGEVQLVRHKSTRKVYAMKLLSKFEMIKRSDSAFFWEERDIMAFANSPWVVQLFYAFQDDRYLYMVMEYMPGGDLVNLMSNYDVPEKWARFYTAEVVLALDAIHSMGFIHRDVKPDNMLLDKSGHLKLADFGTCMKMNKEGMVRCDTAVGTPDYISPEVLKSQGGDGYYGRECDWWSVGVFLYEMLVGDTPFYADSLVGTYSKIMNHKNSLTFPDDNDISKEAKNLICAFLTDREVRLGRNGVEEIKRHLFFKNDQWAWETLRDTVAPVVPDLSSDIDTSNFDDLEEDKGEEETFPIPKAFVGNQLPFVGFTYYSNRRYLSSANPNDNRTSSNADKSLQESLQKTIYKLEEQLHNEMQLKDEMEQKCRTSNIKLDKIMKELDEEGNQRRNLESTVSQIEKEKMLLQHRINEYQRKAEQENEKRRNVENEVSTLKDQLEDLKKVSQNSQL
# Method: (§1) Rho kinase biochemical assays described below depend on firefly luciferase-based, indirect measurement of total ATP consumption by the kinase following incubation with substrate and ATP. 25 μl of Rho kinase assay buffer (20 mM Tris-HCL [pH 7.5], 1 mM MgCl2, 0.4 mM CaCl2, 0.15 mM EGTA, 0.1 mg/ml bovine serum albumin) containing 0.82 μg/ml of recombinant N-terminal GST-tagged human Rho kinase 1 (ROCK1, amino acids 1-535, Invitrogen Inc., cat. #PV-3691) or recombinant N-terminal GST-tagged human Rho kinase 2 (ROCK2, amino acids 1-552, Invitrogen Inc., cat #PV3759), 100 μg/ml S6 peptide substrate (related to amino acids 218-249 of the human 40S ribosomal protein S6, and suitable for ROCK1 or ROCK2, e.g. Upstate/Millipore Inc., cat #12-420), and 3 µM ATP are dispensed to wells of a 384 multi-well opaque plate. The plate is centrifuged for 30 seconds at approximately 200×g. 240 nl of test compound in DMSO is dispensed to each well by passive pin transfer. The lag phase of this in vitro kinase reaction permits addition of compounds soon after the reaction initiates. The reaction is allowed to incubate at 30° C. for 2 hours. The assay plates are sealed and maintained in a humidified environment. After 2 hours, 25 μl of easyLite protein kinase assay reagent (Perkin-Elmer, Inc.) is dispensed. After an additional 10 minute incubation at room temperature (about 22° C.), luminescence activity is measured on a Molecular Devices Analyst multi-mode plate reader or other suitable plate reader. Kinase inhibition results in less ATP consumption, and therefore increased luminescence signal. Negative control activity is measured with DMSO lacking any test compound. The positive control is 2-methyl-1-(4-methylisoquinolin-5-ylsulfonyl)perhydro-1,4-diazepine hydrochloride (aka H-1152P, HCl salt). Efficacy is measured as a percentage of positive control activity. […] In some cases, kinase reactions and compound testing are performed in 1536 multi-well plates under similar conditions, with assay volumes appropriately scaled. The designated NT means the cited example was not tested.
# [3] = target: T2, recombinant N-terminal GST-tagged human Rho kinase 2 (ROCK2, amino acids 1-552) (Homo sapiens, UniProt O75116); test: In vitro Rho kinase assay (luciferase-based ATP consumption), ROCK2; assay type: biochemical
# T2 construct: ROCK2, amino acids 1-552, Invitrogen Inc., cat #PV3759; GST (N); purchased Invitrogen Inc. PV3759
# T2 sequence (O75116 1-552): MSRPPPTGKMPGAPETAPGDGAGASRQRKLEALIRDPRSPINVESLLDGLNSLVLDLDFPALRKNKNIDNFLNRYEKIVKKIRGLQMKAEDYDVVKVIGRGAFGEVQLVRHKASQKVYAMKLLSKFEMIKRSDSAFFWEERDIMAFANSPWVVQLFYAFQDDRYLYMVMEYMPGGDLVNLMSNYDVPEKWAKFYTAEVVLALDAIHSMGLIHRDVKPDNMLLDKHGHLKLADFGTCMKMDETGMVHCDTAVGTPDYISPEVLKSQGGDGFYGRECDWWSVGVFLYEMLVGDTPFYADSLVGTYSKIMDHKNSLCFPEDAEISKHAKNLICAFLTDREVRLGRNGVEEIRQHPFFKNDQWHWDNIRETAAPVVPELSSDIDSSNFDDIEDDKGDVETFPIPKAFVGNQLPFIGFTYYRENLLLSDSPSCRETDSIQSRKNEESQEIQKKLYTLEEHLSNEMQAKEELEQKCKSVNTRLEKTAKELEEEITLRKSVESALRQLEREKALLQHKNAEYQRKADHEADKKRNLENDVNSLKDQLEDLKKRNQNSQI
# Method: as §1
SMILES,IC50 [2],IC50 [3],Peak % Reduction in IOP vs. Control at 0.3% [1],Peak % Reduction in IOP vs. Control at 1.0% [1]
"O=C(NCc1nc(-c2ccncc2)n[nH]1)c1ccc(O)cc1O [Example 15, 2,4-dihydroxy-N-((3-(pyridin-4-yl)-1H-1,2,4-triazol-5-yl)methyl)benzamide]",< 5 µM,< 5 µM,14.9%,9.8%
"CC(=O)Oc1ccc(C(=O)NCc2nc(-c3ccncc3)n[nH]2)c(O)c1 [Example 36, 3-Hydroxy-4-((3-(pyridin-4-yl)-1H-1,2,4-triazol-5-yl)methylcarbamoyl)phenyl acetate]",< 5 µM,< 5 µM,8.4%,–
"O=C(NCc1nc(-c2ccncc2)n[nH]1)c1ccc(O)cc1O [Ex. 15 HCl, 2,4-dihydroxy-N-((3-(pyridin-4-yl)-1H-1,2,4-triazol-5-yl)methyl)benzamide]",–,–,–,8.8%
"Cn1nc(-c2ccncc2)nc1CNC(=O)c1cccs1 [Example 50, N-((1-Methyl-3-(pyridin-4-yl)-1H-1,2,4-triazol-5-yl)methyl)thiophene-2-carboxamide]",> 5 µM,> 5 µM,–,–
"CC(C)c1cccc(C(=O)NCc2nc(-c3ccncc3)n[nH]2)c1O [Example 41, 2-Hydroxy-3-isopropyl-N-((3-(pyridin-4-yl)-1H-1,2,4-triazol-5-yl)methyl)benzamide]",< 5 µM,< 5 µM,–,–
"COc1cccc(C(=O)NCc2nc(-c3c[nH]c4ncccc34)cs2)c1 [Example 74, N-((4-(1H-pyrrolo[2,3-b]pyridin-3-yl)thiazol-2-yl)methyl)-3-methoxybenzamide]",< 5 µM,< 5 µM,–,–

# Continued, in another order:
IC50 [2],IC50 [3],SMILES,Peak % Reduction in IOP vs. Control at 0.3% [1],Peak % Reduction in IOP vs. Control at 1.0% [1]
< 5 µM,< 5 µM,"O=C(NCc1nc(-c2ccncc2)c[nH]1)c1ccc(O)cc1O [Example 6, 2,4-dihydroxy-N-((4-(pyridin-4-yl)-1H-imidazol-2-yl)methyl)benzamide]",5.8%,–
< 5 µM,< 5 µM,"Cc1cccc(C(=O)NCc2nc(-c3ccncc3)c[nH]2)c1O [Example 7, 2-hydroxy-3-methyl-N-((4-(pyridin-4-yl)-1H-imidazol-2-yl)methyl)benzamide]",11.0%,–
< 5 µM,< 5 µM,"Cc1cccc(C(=O)NCc2nc(-c3ccncc3)n[nH]2)c1O [Example 22, 2-hydroxy-3-methyl-N-((3-(pyridin-4-yl)-1H-1,2,4-triazol-5-yl)methyl)benzamide]",11.1%,–
< 5 µM,< 5 µM,"CC(C)C(=O)Oc1ccc(C(=O)NCc2nc(-c3ccncc3)n[nH]2)c(O)c1 [Example 35, 3-Hydroxy-4-((3-(pyridin-4-yl)-1H-1,2,4-triazol-5-yl)methylcarbamoyl)phenyl isobutyrate]",8.6%,–
> 5 µM,< 5 µM,"O=C(NCc1nc(-c2ccncc2)n[nH]1)c1n[nH]c2ccccc12 [Example 33, N-((3-(Pyridin-4-yl)-1H-1,2,4-triazol-5-yl)methyl)-1H-indazole-3-carboxamide]",–,–
> 5 µM,> 5 µM,"NC(=O)c1cc(-c2ccncc2)n[nH]1 [Example 11, 3-(pyridin-4-yl)-1H-pyrazole-5-carboxamide]",–,–
> 5 µM,> 5 µM,"COc1cccc(C(=O)NCc2nc(-c3ccncc3)no2)c1 [Example 3, 3-methoxy-N-((3-(pyridin-4-yl)-1,2,4-oxadiazol-5-yl)methyl)benzamide]",–,–
< 5 µM,< 5 µM,"Cc1cc(C(=O)NCc2nc(-c3ccncc3)n[nH]2)ccc1O [Example 45, 4-Hydroxy-3-methyl-N-((3-(pyridin-4-yl)-1H-1,2,4-triazol-5-yl)methyl)benzamide]",–,–
